Measured values published in US20260027116A1, “Methods of Treating Chronic Graft-Versus-Host Disease Following Allogeneic Hematopoietic Stem Cell Transplantation” (Kadmon Corporation, LLC, priority 2022, published 2026).

System: lung function
Assay: Example 1: percent predicted FEV1 change from baseline
Assay type: in vivo, human
Experimental: Change From Baseline in Percent Predicted Forced Expiratory Volume in 1 Second (FEV1) at Each Specified Time Points. FEV1 was the volume of air exhaled from the lungs in the first second of a forced expiration as measured by spirometer. Baseline value was defined as valid and last non-missing value obtained within 28 days prior to participant receiving first study medication. EOT visit was performed within 3 days after the participant's last dose of study drug. […] Analysis was performed on mITT population. Here, ‘number analyzed’=participants with available data for each specified category. Here, ‘O’ in the number analyzed field signifies that none of the participants were available for the analysis at the specified time points.

CC(C)NC(=O)COc1cccc(-c2nc(Nc3ccc4[nH]ncc4c3)c3ccccc3n2)c1 [Belumosudil, 2-{3-[4-(1H-indazol-5-ylamino)-2-quinazolinyl]phenoxy}-N-(propan-2-yl) acetamide]
Change From Baseline in Percent Predicted Forced Expiratory Volume in 1 Second (FEV1), Mean (Standard Deviation) (Cohort 1: 200 mg QD, Cycle 3, Day 1): 1.1 (4.8) percent predicted FEV1 | Change From Baseline in Percent Predicted Forced Expiratory Volume in 1 Second (FEV1), Mean (Standard Deviation) (Cohort 1: 200 mg QD, Cycle 5, Day 1): −3.3 (8.0) percent predicted FEV1 | Change From Baseline in Percent Predicted Forced Expiratory Volume in 1 Second (FEV1), Mean (Standard Deviation) (Cohort 1: 200 mg QD, Cycle 7, Day 1): −3.5 (4.6) percent predicted FEV1 | Change From Baseline in Percent Predicted Forced Expiratory Volume in 1 Second (FEV1), Mean (Standard Deviation) (Cohort 1: 200 mg QD, Cycle 9, Day 1): −1.7 (6.8) percent predicted FEV1 | Change From Baseline in Percent Predicted Forced Expiratory Volume in 1 Second (FEV1), Mean (Standard Deviation) (Cohort 1: 200 mg QD, Cycle 11, Day 1): −4.3 (5.2) percent predicted FEV1 | Change From Baseline in Percent Predicted Forced Expiratory Volume in 1 Second (FEV1), Mean (Standard Deviation) (Cohort 1: 200 mg QD, Cycle 12, Day 1): −2.0 (—) percent predicted FEV1 | Change From Baseline in Percent Predicted Forced Expiratory Volume in 1 Second (FEV1), Mean (Standard Deviation) (Cohort 1: 200 mg QD, Cycle 13, Day 1): −5.9 (9.3) percent predicted FEV1 | Change From Baseline in Percent Predicted Forced Expiratory Volume in 1 Second (FEV1), Mean (Standard Deviation) (Cohort 1: 200 mg QD, Cycle 14, Day 1): 2.0 (—) percent predicted FEV1 | Change From Baseline in Percent Predicted Forced Expiratory Volume in 1 Second (FEV1), Mean (Standard Deviation) (Cohort 1: 200 mg QD, Cycle 15, Day 1): −6.7 (11.7) percent predicted FEV1 | Change From Baseline in Percent Predicted Forced Expiratory Volume in 1 Second (FEV1), Mean (Standard Deviation) (Cohort 1: 200 mg QD, Cycle 16, Day 1): 2.0 (—) percent predicted FEV1 | Change From Baseline in Percent Predicted Forced Expiratory Volume in 1 Second (FEV1), Mean (Standard Deviation) (Cohort 1: 200 mg QD, Cycle 17, Day 1): −5.3 (9.1) percent predicted FEV1 | Change From Baseline in Percent Predicted Forced Expiratory Volume in 1 Second (FEV1), Mean (Standard Deviation) (Cohort 1: 200 mg QD, Cycle 19, Day 1): −5.2 (9.9) percent predicted FEV1 | Change From Baseline in Percent Predicted Forced Expiratory Volume in 1 Second (FEV1), Mean (Standard Deviation) (Cohort 1: 200 mg QD, Cycle 25, Day 1): −11.0 (15.6) percent predicted FEV1 | Change From Baseline in Percent Predicted Forced Expiratory Volume in 1 Second (FEV1), Mean (Standard Deviation) (Cohort 1: 200 mg QD, Cycle 26, Day 1): 0.0 (—) percent predicted FEV1 | Change From Baseline in Percent Predicted Forced Expiratory Volume in 1 Second (FEV1), Mean (Standard Deviation) (Cohort 1: 200 mg QD, Cycle 27, Day 1): −6.5 (13.4) percent predicted FEV1 | Change From Baseline in Percent Predicted Forced Expiratory Volume in 1 Second (FEV1), Mean (Standard Deviation) (Cohort 1: 200 mg QD, Cycle 29, Day 1): −0.5 (9.2) percent predicted FEV1 | Change From Baseline in Percent Predicted Forced Expiratory Volume in 1 Second (FEV1), Mean (Standard Deviation) (Cohort 1: 200 mg QD, Cycle 30, Day 1): 3.0 (—) percent predicted FEV1 | Change From Baseline in Percent Predicted Forced Expiratory Volume in 1 Second (FEV1), Mean (Standard Deviation) (Cohort 1: 200 mg QD, Cycle 31, Day 1): −3.5 (12.0) percent predicted FEV1 | Change From Baseline in Percent Predicted Forced Expiratory Volume in 1 Second (FEV1), Mean (Standard Deviation) (Cohort 1: 200 mg QD, Cycle 32, Day 1): 1.0 (—) percent predicted FEV1 | Change From Baseline in Percent Predicted Forced Expiratory Volume in 1 Second (FEV1), Mean (Standard Deviation) (Cohort 1: 200 mg QD, Cycle 33, Day 1): 5.0 (5.7) percent predicted FEV1 | Change From Baseline in Percent Predicted Forced Expiratory Volume in 1 Second (FEV1), Mean (Standard Deviation) (Cohort 1: 200 mg QD, Cycle 34, Day 1): 2.0 (—) percent predicted FEV1 | Change From Baseline in Percent Predicted Forced Expiratory Volume in 1 Second (FEV1), Mean (Standard Deviation) (Cohort 1: 200 mg QD, Cycle 35, Day 1): 5.0 (0.0) percent predicted FEV1 | Change From Baseline in Percent Predicted Forced Expiratory Volume in 1 Second (FEV1), Mean (Standard Deviation) (Cohort 1: 200 mg QD, Cycle 36, Day 1): 3.0 (—) percent predicted FEV1 | Change From Baseline in Percent Predicted Forced Expiratory Volume in 1 Second (FEV1), Mean (Standard Deviation) (Cohort 1: 200 mg QD, Cycle 37, Day 1): −1.0 (—) percent predicted FEV1 | Change From Baseline in Percent Predicted Forced Expiratory Volume in 1 Second (FEV1), Mean (Standard Deviation) (Cohort 1: 200 mg QD, Cycle 38, Day 1): 1.0 (—) percent predicted FEV1 | Change From Baseline in Percent Predicted Forced Expiratory Volume in 1 Second (FEV1), Mean (Standard Deviation) (Cohort 1: 200 mg QD, Cycle 39, Day 1): 10.0 (2.8) percent predicted FEV1 | Change From Baseline in Percent Predicted Forced Expiratory Volume in 1 Second (FEV1), Mean (Standard Deviation) (Cohort 1: 200 mg QD, Cycle 40, Day 1): −1.0 (—) percent predicted FEV1 | Change From Baseline in Percent Predicted Forced Expiratory Volume in 1 Second (FEV1), Mean (Standard Deviation) (Cohort 1: 200 mg QD, Cycle 41, Day 1): 15.0 (—) percent predicted FEV1 | Change From Baseline in Percent Predicted Forced Expiratory Volume in 1 Second (FEV1), Mean (Standard Deviation) (Cohort 1: 200 mg QD, Cycle 43, Day 1): 16.0 (—) percent predicted FEV1 | Change From Baseline in Percent Predicted Forced Expiratory Volume in 1 Second (FEV1), Mean (Standard Deviation) (Cohort 1: 200 mg QD, Cycle 47, Day 1): 5.0 (—) percent predicted FEV1 | Change From Baseline in Percent Predicted Forced Expiratory Volume in 1 Second (FEV1), Mean (Standard Deviation) (Cohort 1: 200 mg QD, Cycle 48, Day 1): 3.0 (—) percent predicted FEV1 | Change From Baseline in Percent Predicted Forced Expiratory Volume in 1 Second (FEV1), Mean (Standard Deviation) (Cohort 1: 200 mg QD, Cycle 49, Day 1): 8.0 (—) percent predicted FEV1 | Change From Baseline in Percent Predicted Forced Expiratory Volume in 1 Second (FEV1), Mean (Standard Deviation) (Cohort 1: 200 mg QD, Cycle 51, Day 1): 8.0 (—) percent predicted FEV1 | Change From Baseline in Percent Predicted Forced Expiratory Volume in 1 Second (FEV1), Mean (Standard Deviation) (Cohort 1: 200 mg QD, Cycle 52, Day 1): 0.0 (—) percent predicted FEV1 | Change From Baseline in Percent Predicted Forced Expiratory Volume in 1 Second (FEV1), Mean (Standard Deviation) (Cohort 1: 200 mg QD, Cycle 53, Day 1): 9.0 (—) percent predicted FEV1 | Change From Baseline in Percent Predicted Forced Expiratory Volume in 1 Second (FEV1), Mean (Standard Deviation) (Cohort 1: 200 mg QD, Cycle 54, Day 1): 4.0 (—) percent predicted FEV1 | Change From Baseline in Percent Predicted Forced Expiratory Volume in 1 Second (FEV1), Mean (Standard Deviation) (Cohort 1: 200 mg QD, Cycle 55, Day 1): 13.0 (—) percent predicted FEV1 | Change From Baseline in Percent Predicted Forced Expiratory Volume in 1 Second (FEV1), Mean (Standard Deviation) (Cohort 1: 200 mg QD, Cycle 56, Day 1): 4.0 (—) percent predicted FEV1 | Change From Baseline in Percent Predicted Forced Expiratory Volume in 1 Second (FEV1), Mean (Standard Deviation) (Cohort 1: 200 mg QD, Cycle 57, Day 1): 13.0 (—) percent predicted FEV1 | Change From Baseline in Percent Predicted Forced Expiratory Volume in 1 Second (FEV1), Mean (Standard Deviation) (Cohort 1: 200 mg QD, Cycle 58, Day 1): 5.0 (—) percent predicted FEV1 | Change From Baseline in Percent Predicted Forced Expiratory Volume in 1 Second (FEV1), Mean (Standard Deviation) (Cohort 1: 200 mg QD, Cycle 60, Day 1): 4.0 (—) percent predicted FEV1 | Change From Baseline in Percent Predicted Forced Expiratory Volume in 1 Second (FEV1), Mean (Standard Deviation) (Cohort 1: 200 mg QD, Cycle 61, Day 1): 10.0 (—) percent predicted FEV1 | Change From Baseline in Percent Predicted Forced Expiratory Volume in 1 Second (FEV1), Mean (Standard Deviation) (Cohort 1: 200 mg QD, Cycle 62, Day 1): 2.0 (—) percent predicted FEV1 | Change From Baseline in Percent Predicted Forced Expiratory Volume in 1 Second (FEV1), Mean (Standard Deviation) (Cohort 1: 200 mg QD, Cycle 63, Day 1): 13.0 (—) percent predicted FEV1 | Change From Baseline in Percent Predicted Forced Expiratory Volume in 1 Second (FEV1), Mean (Standard Deviation) (Cohort 1: 200 mg QD, Cycle 67, Day 1): 14.0 (—) percent predicted FEV1 | Change From Baseline in Percent Predicted Forced Expiratory Volume in 1 Second (FEV1), Mean (Standard Deviation) (Cohort 1: 200 mg QD, EOT): −1.4 (9.0) percent predicted FEV1 | Change From Baseline in Percent Predicted Forced Expiratory Volume in 1 Second (FEV1), Mean (Standard Deviation) (Cohort 2: 200 mg BID, Cycle 3, Day 1): −1.8 (7.1) percent predicted FEV1 | Change From Baseline in Percent Predicted Forced Expiratory Volume in 1 Second (FEV1), Mean (Standard Deviation) (Cohort 2: 200 mg BID, Cycle 5, Day 1): −5.0 (6.5) percent predicted FEV1 | Change From Baseline in Percent Predicted Forced Expiratory Volume in 1 Second (FEV1), Mean (Standard Deviation) (Cohort 2: 200 mg BID, Cycle 7, Day 1): −2.6 (9.4) percent predicted FEV1 | Change From Baseline in Percent Predicted Forced Expiratory Volume in 1 Second (FEV1), Mean (Standard Deviation) (Cohort 2: 200 mg BID, Cycle 8, Day 1): 1.0 (—) percent predicted FEV1 | Change From Baseline in Percent Predicted Forced Expiratory Volume in 1 Second (FEV1), Mean (Standard Deviation) (Cohort 2: 200 mg BID, Cycle 9, Day 1): −5.9 (11.7) percent predicted FEV1 | Change From Baseline in Percent Predicted Forced Expiratory Volume in 1 Second (FEV1), Mean (Standard Deviation) (Cohort 2: 200 mg BID, Cycle 10, Day 1): −6.0 (8.5) percent predicted FEV1
